Tests used:
Assay type in all cases: cell-based
K-562 = assay: NCI60 one-dose screen; details: Homo sapiens, K562, read-out: Growth percent
A549/ATCC = assay: NCI60 one-dose screen; details: Homo sapiens, A549, read-out: Growth percent
EKVX [1] = assay: NCI60 one-dose screen; details: Homo sapiens, read-out: Growth percent
NCI-H23 = assay: NCI60 one-dose screen; details: Homo sapiens, NCI-H23, read-out: Growth percent
NCI-H322M = assay: NCI60 one-dose screen; details: Homo sapiens, read-out: Growth percent
NCI-H460 = assay: NCI60 one-dose screen; details: Homo sapiens, NCI-H460, read-out: Growth percent
NCI-H522 = assay: NCI60 one-dose screen; details: Homo sapiens, NCI-H522, read-out: Growth percent
KM12 = assay: NCI60 one-dose screen; details: Homo sapiens, KM12, read-out: Growth percent
SNB-19 = assay: NCI60 one-dose screen; details: Homo sapiens, SNB-19, read-out: Growth percent
LOX IMVI = assay: NCI60 one-dose screen; details: Homo sapiens, read-out: Growth percent
MDA-MB-435 = assay: NCI60 one-dose screen; details: Homo sapiens, MDA-MB-435, read-out: Growth percent
UACC-62 = assay: NCI60 one-dose screen; details: Homo sapiens, UACC-62, read-out: Growth percent
OVCAR-3 = assay: NCI60 one-dose screen; details: Homo sapiens, OVCAR-3, read-out: Growth percent
SK-OV-3 = assay: NCI60 one-dose screen; details: Homo sapiens, SK-OV-3, read-out: Growth percent
786-0 [2] = assay: NCI60 one-dose screen; details: Homo sapiens, 786-0, read-out: Growth percent
RXF 393 [3] = assay: NCI60 one-dose screen; details: Homo sapiens, RXF 393, read-out: Growth percent
SN12C = assay: NCI60 one-dose screen; details: Homo sapiens, read-out: Growth percent
TK-10 [4] = assay: NCI60 one-dose screen; details: Homo sapiens, TK-10, read-out: Growth percent
PC-3 [5] = assay: NCI60 one-dose screen; details: Homo sapiens, PC-3, read-out: Growth percent
DU-145 = assay: NCI60 one-dose screen; details: Homo sapiens, DU-145, read-out: Growth percent
MDA-MB-468 = assay: NCI60 one-dose screen; details: Homo sapiens, MDA-MB-468, read-out: Growth percent
CCRF-CEM = assay: NCI60 five-dose screen; details: Homo sapiens
RPMI-8226 = assay: NCI60 five-dose screen; details: Homo sapiens, RPMI-8226
EKVX [6] = assay: NCI60 five-dose screen; details: Homo sapiens
HCT-15 = assay: NCI60 five-dose screen; details: Homo sapiens, HCT-15
SF-539 = assay: NCI60 five-dose screen; details: Homo sapiens, SF-539
U251 = assay: NCI60 five-dose screen; details: Homo sapiens, U-251
MALME-3M = assay: NCI60 five-dose screen; details: Homo sapiens, Malme-3M
M14 = assay: NCI60 five-dose screen; details: Homo sapiens, M14
SK-MEL-28 = assay: NCI60 five-dose screen; details: Homo sapiens, SK-MEL-28
OVCAR-4 = assay: NCI60 five-dose screen; details: Homo sapiens, OVCAR-4
OVCAR-5 = assay: NCI60 five-dose screen; details: Homo sapiens, OVCAR-5
OVCAR-8 = assay: NCI60 five-dose screen; details: Homo sapiens, OVCAR-8
NCI/ADR-RES = assay: NCI60 five-dose screen; details: Homo sapiens
786-0 [7] = assay: NCI60 five-dose screen; details: Homo sapiens, 786-0
ACHN = assay: NCI60 five-dose screen; details: Homo sapiens
RXF 393 [8] = assay: NCI60 five-dose screen; details: Homo sapiens, RXF 393
TK-10 [9] = assay: NCI60 five-dose screen; details: Homo sapiens, TK-10
PC-3 [10] = assay: NCI60 five-dose screen; details: Homo sapiens, PC-3
MCF7 = assay: NCI60 five-dose screen; details: Homo sapiens, MCF7
BT-549 = assay: NCI60 five-dose screen; details: Homo sapiens, BT-549
[11] = tested on: Non-small Cell Lung Cancer panel; assay: NCI60 five-dose screen, panel mean; details: Homo sapiens, read-out: GI50 Mean
Melanoma panel = assay: NCI60 five-dose screen, panel mean; details: Homo sapiens, read-out: GI50 Mean
Ovarian Cancer panel = assay: NCI60 five-dose screen, panel mean; details: Homo sapiens, read-out: GI50 Mean
Renal Cancer panel = assay: NCI60 five-dose screen, panel mean; details: Homo sapiens, read-out: GI50 Mean
COLO 205 = assay: NCI60 one-dose screen; details: Homo sapiens, COLO 205, read-out: Growth percent

With `CCC12C=CCN3CC[C@@]4(c5ccc(OC)cc5N(C)[C@H]4[C@@](O)(C(=O)OC)[C@@H]1OC(C)=O)[C@@H]32` (stereo partly drawn) [compound 2, vindoline] the activity at 10 µM (K-562) was 103%, the activity at 10 µM (A549/ATCC) was 93.5% and the activity at 10 µM (EKVX [1]) was 102%. The activity at 10 µM (NCI-H23) was 103%, the activity at 10 µM (NCI-H322M) was 97.8% and the activity at 10 µM (NCI-H460) was 104%. It also gave an activity at 10 µM (NCI-H522) of 88.5%, an activity at 10 µM (KM12) of 102% and an activity at 10 µM (SNB-19) of 96.6%. It also gave an activity at 10 µM (LOX IMVI) of 99.4%, an activity at 10 µM (MDA-MB-435) of 105% and an activity at 10 µM (UACC-62) of 94.7%. The activity at 10 µM (OVCAR-3) was 112%, the activity at 10 µM (SK-OV-3) was 108% and the activity at 10 µM (786-0 [2]) was 104%. The activity at 10 µM (RXF 393 [3]) was 104%, the activity at 10 µM (SN12C) was 96.1% and the activity at 10 µM (TK-10 [4]) was 92.1%. The activity at 10 µM (PC-3 [5]) was 88.3%, the activity at 10 µM (DU-145) was 107% and the activity at 10 µM (MDA-MB-468) was 102%.

Work on `CC[C@]12C=CCN3CC[C@@]4(c5ccc(OC)cc5N(C)[C@H]4[C@@](O)(C(=O)OC)[C@@H]1OC(=O)CCCC[P+](c1ccccc1)(c1ccccc1)c1ccccc1)[C@@H]32` [compound 4, reference compound] yielded a GI50 (CCRF-CEM) of 697 nM, a GI50 (RPMI-8226) of 497 nM and a GI50 (EKVX [6]) of 586 nM. The GI50 (HCT-15) was 18600 nM, the GI50 (SF-539) was 1300 nM and the GI50 (U251) was 312 nM. It also gave a GI50 (MALME-3M) of 273 nM, a GI50 (M14) of 1790 nM and a GI50 (SK-MEL-28) of 532 nM. It also gave a GI50 (OVCAR-4) of 326 nM, a GI50 (OVCAR-5) of 1820 nM and a GI50 (OVCAR-8) of 1740 nM. The GI50 (NCI/ADR-RES) was > 100000 nM, the GI50 (786-0 [7]) was 2900 nM and the GI50 (ACHN) was 14600 nM. The GI50 (RXF 393 [8]) was 308 nM, the GI50 (TK-10 [9]) was 2820 nM and the GI50 (PC-3 [10]) was 369 nM. The GI50 (MCF7) was 322 nM, the GI50 (BT-549) was 583 nM and the GI50 [11] was 1440 nM. The GI50 (Melanoma panel) was 750 nM, the GI50 (Ovarian Cancer panel) was 15100 nM and the GI50 (Renal Cancer panel) was 4870 nM. For the same compound, the activity at 10 µM (K-562) was 21.7%, the activity at 10 µM (A549/ATCC) was 22.1% and the activity at 10 µM (EKVX [1]) was 56.1%. It also gave an activity at 10 µM (NCI-H23) of 6.4%, an activity at 10 µM (NCI-H322M) of 47% and an activity at 10 µM (NCI-H460) of 18.4%. For the same compound, the activity at 10 µM (NCI-H522) was -5.5%, the activity at 10 µM (COLO 205) was -93.7% and the activity at 10 µM (KM12) was 3.15%. For the same compound, the activity at 10 µM (SNB-19) was 12.7%, the activity at 10 µM (LOX IMVI) was 18.5% and the activity at 10 µM (MDA-MB-435) was -19.7%. For the same compound, the activity at 10 µM (UACC-62) was -6.54%, the activity at 10 µM (OVCAR-3) was -0.29% and the activity at 10 µM (SK-OV-3) was -2.96%. The activity at 10 µM (786-0 [2]) was 57.2%, the activity at 10 µM (RXF 393 [3]) was -13.3% and the activity at 10 µM (SN12C) was 4.56%. It also gave an activity at 10 µM (TK-10 [4]) of 48.6%, an activity at 10 µM (DU-145) of 14.7% and an activity at 10 µM (MDA-MB-468) of -63.9%.

From publication PMC12028158, “Synthesis and In Vitro Evaluation of the Anticancer Effect of Novel Phosphonium Vindoline Derivatives” (International Journal of Molecular Sciences, 2025)
